Here are results for eleven compounds from ChEMBL document CHEMBL1201862, “PubChem BioAssay data set” (2004).

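Test compounds were applied to cells in 96-well plates for 48 hours at 5 doses. Abbreviation: GI50, concentration required for 50% inhibition of growth.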 The source made the active and inactive calls. No stated cut-off is given here; in the data, active = GI50 up to about 1.1 µM and inactive = higher.

Common to all, as to experiment: NCI-60 cell line screen, 48 h
Assay [1] deals with SF-295.
For assay [2], the system named is ACHN.
Assay [3] has as its system SN12C.
The test system of assay [4] is UACC-62.
Assay [5] deals with SNB-75.
The test system of assay [6] is CAKI-1.
Assay [7] deals with OVCAR-8.
Assay [8] concerns SNB-19.
Assay [9] concerns UO-31.
The subject of assay [10] is NCI-H23.
Assay [11] has as its system KM12.
Assay [12] has as its system SK-MEL-28.
The subject of assay [13] is U-251.
In assay [14] the test system is SK-MEL-5.
Assay [15] has as its system EKVX.
The subject of assay [16] is HCT-116.
Assay [17] has as its system RPMI-8226.
In assay [18] the test system is 786-0.
Assay [19] deals with IGROV-1.
Assay [20] relates to HT-29.

In the case of `CC1NC(=O)C2=C1C(N)=NC(=O)C2` (stereo not given), the GI50 in assay [1], in [2], in assay [3], in assay [4], in assay [5] and in assay [6] was > 100 µM (inactive) throughout. Further, the GI50 in assay [7], in assay [8], in assay [9], in [10], in assay [11] and in assay [12] was > 100 µM (inactive) each time. Moreover, the GI50 in assay [13], in assay [14], in [15], in assay [16], in assay [17] and in [18] was > 100 µM (inactive) throughout. In assay [19], the GI50 was > 100 µM (inactive).

`CC(C)(O)/C=C/C(=O)[C@](C)(O)[C@H]1[C@H](O)C[C@@]2(C)[C@@H]3CC=C4[C@@H](C[C@H](O)C(=O)C4(C)C)[C@]3(C)C(=O)C[C@]12C` [CUCURBITACIN D]: the GI50 in [1] was 0.344 µM (active); in assay [3] it was 0.792 µM (active); in assay [4] it was 0.0438 µM (active); in [5], 0.59 µM (active); in assay [6], 0.116 µM (active); in assay [7], 0.65 µM (active). For the same compound, the GI50 is 0.112 µM (active) in assay [20]; 0.249 µM (active) in assay [8]; 0.272 µM (active) in assay [9]; 1.07 µM (active) in assay [10]; 0.624 µM (active) in [11]; 0.0653 µM (active) in assay [12]. For the same compound, the GI50 in assay [13] was 0.0923 µM (active); in [15] it was 0.375 µM (active); in assay [16], 0.112 µM (active); in assay [17], 0.0228 µM (active); in [18], 0.1 µM (active); in [19], 0.376 µM (active).

`NCCCCNCCCNC(=O)c1nc(-c2nc(CCN)sc2Cl)sc1Cl`: the GI50 in [1] was 59.8 µM (inactive); in [2], > 100 µM (inactive); in assay [3], > 100 µM (inactive); in assay [4] it was > 100 µM (inactive); in assay [5], 72.9 µM (inactive); in [6], > 100 µM (inactive). Further, the GI50 in [7] is > 100 µM (inactive); in [20] it was > 100 µM (inactive); in assay [8], > 100 µM (inactive); in assay [9], > 100 µM (inactive); in [10], 37.9 µM (inactive); in [11], 27.5 µM (inactive). Besides, the GI50 in assay [12] is 46.5 µM (inactive); in assay [13] it was > 100 µM (inactive); in assay [14], > 100 µM (inactive); in assay [15] it was > 100 µM (inactive); in assay [16] it was 9.48 µM (inactive); in [17], 31.3 µM (inactive). Moreover, the GI50 in [19] is > 100 µM (inactive).

For `C#C[C@H](CCCC)OC(=O)N[C@H](C)c1ccccc1`, the GI50 in assay [1] is 75 µM (inactive); in assay [2] it was 41.9 µM (inactive); in [3], > 100 µM (inactive); in assay [4], 80.9 µM (inactive); in assay [5], 41.2 µM (inactive); in [6], 52.6 µM (inactive). The GI50 in [7] was 49.3 µM (inactive); in [20], 40.2 µM (inactive); in assay [8], > 100 µM (inactive); in assay [9], 26.9 µM (inactive); in assay [11], 51.3 µM (inactive); in assay [12], 54.5 µM (inactive). The GI50 in [13] is 59.8 µM (inactive); in assay [14] it was 21.7 µM (inactive); in [15] it was 50.6 µM (inactive); in [16], 24 µM (inactive); in assay [17], 24.5 µM (inactive); in assay [18], 49.1 µM (inactive). In assay [19], the GI50 is 75.3 µM (inactive).

Turning to `CN(C)/C=N/CC(O)c1ccccc1` (stereo not given), the GI50 in [2], in assay [3], in assay [4], in assay [5], in assay [6] and in assay [20] was > 100 µM (inactive) throughout. In addition, the GI50 in assay [8] is > 100 µM (inactive); in assay [9], > 100 µM (inactive); in assay [10] it was > 100 µM (inactive); in assay [11], > 100 µM (inactive); in assay [12], > 100 µM (inactive); in [13], > 10 µM (inactive). Besides, the GI50 in assay [14], in assay [15], in [16], in [17], in assay [18] and in assay [19] was > 100 µM (inactive) each time.

With `CC1=N/C(=C/c2ccc3c(c2)OCO3)C(=O)O1`, the GI50 in assay [2], in [3], in assay [4], in [5], in [6] and in assay [7] was > 100 µM (inactive) throughout. The GI50 in [20], in assay [8], in assay [9], in [10], in [11] and in assay [12] was > 100 µM (inactive) each time. Also, the GI50 in [13], in [14], in assay [15], in assay [16], in [17] and in [18] was > 100 µM (inactive) throughout. Besides, the GI50 in assay [19] was > 100 µM (inactive).

Turning to `CC(=O)OC(C)C(=O)C1c2cccc(O)c2C(=O)c2c(O)cc(C)cc21` (stereo not given), the GI50 is 0.344 µM (active) in assay [1]; 0.579 µM (active) in assay [2]; 0.879 µM (active) in assay [3]; 0.52 µM (active) in [5]; 1.71 µM (inactive) in [6]; 1.06 µM (active) in assay [7]. In addition, the GI50 in assay [20] is 1.66 µM (inactive); in assay [8], 0.344 µM (active); in assay [9] it was 0.261 µM (active); in assay [10], 0.324 µM (active); in [11], 0.33 µM (active); in [12], 1.01 µM (active). In addition, the GI50 in [13] is 0.26 µM (active); in assay [14], 0.357 µM (active); in assay [15] it was 1.36 µM (inactive); in [16] it was 0.31 µM (active); in assay [17] it was 0.991 µM (active); in [18], 1.09 µM (active). In addition, the GI50 in assay [19] is 0.478 µM (active).

As for `Cc1cc(N(CCC#N)CCC#N)ccc1/N=N/c1cc(Cl)ccc1Cl`, the GI50 in assay [1] is 19.6 µM (inactive); in assay [2], 12.8 µM (inactive); in assay [3] it was 13.4 µM (inactive); in assay [4] it was 10.1 µM (inactive); in assay [5] it was 13 µM (inactive); in assay [6], 3.5 µM (inactive). Further, the GI50 is 7.74 µM (inactive) in [7]; 2.64 µM (inactive) in assay [20]; 17.5 µM (inactive) in [8]; 16.7 µM (inactive) in assay [9]; 13.4 µM (inactive) in [10]; 15.2 µM (inactive) in assay [11]. Besides, the GI50 in assay [12] is 7.87 µM (inactive); in [13], 18.3 µM (inactive); in [14], 16.4 µM (inactive); in assay [15] it was 13.6 µM (inactive); in assay [17] it was 5.35 µM (inactive); in [18] it was 14.6 µM (inactive). The GI50 in assay [19] is 15.1 µM (inactive).

On to `Cc1ccc2oc(=O)c(-c3ccccc3)nc2c1`, for which the GI50 in assay [1] was 40.5 µM (inactive); in assay [2], 27.9 µM (inactive); in assay [3] it was 31.8 µM (inactive); in assay [5] it was 37.5 µM (inactive); in assay [6], 28.9 µM (inactive); in assay [7] it was 36.4 µM (inactive). The GI50 in assay [20] was 45.6 µM (inactive); in assay [8], 38.9 µM (inactive); in [9], 27 µM (inactive); in [10], 24.7 µM (inactive); in assay [11], 19.6 µM (inactive); in assay [12] it was 50.4 µM (inactive). Also, the GI50 in assay [14] is 30.8 µM (inactive); in assay [15] it was 39.5 µM (inactive); in [16], 20.6 µM (inactive); in assay [17], 31.5 µM (inactive); in [18] it was 23.3 µM (inactive).

As to `CCC(Sc1cc(Cl)c(C)cc1S(=O)(=O)Nc1nc(N)nc(N(C)C)n1)C(=O)O` (stereo not given), the GI50 in assay [1], in [2], in [3], in [5], in assay [6] and in assay [7] was > 10 µM (inactive) throughout. Also, the GI50 in assay [20], in [8], in assay [9], in assay [10], in [11] and in assay [12] was > 10 µM (inactive) in each case. Further, the GI50 in assay [13], in [14], in assay [15], in assay [16], in assay [17] and in assay [18] was > 10 µM (inactive) throughout. The GI50 in assay [19] is > 10 µM (inactive).

With `O=C(NS(=O)(=O)OCC(Cl)(Cl)Cl)SCCC(F)(F)C(F)(F)C(F)(F)C(F)(F)C(F)(F)C(F)(F)F`, the GI50 is 20.2 µM (inactive) in [1]; 40.9 µM (inactive) in assay [2]; 32.4 µM (inactive) in assay [3]; 18.8 µM (inactive) in assay [4]; 23.1 µM (inactive) in [5]; 30.5 µM (inactive) in assay [6]. Further, the GI50 in assay [7] was 51.3 µM (inactive); in [20] it was 18.8 µM (inactive); in assay [8] it was 17.9 µM (inactive); in [9], 38 µM (inactive); in assay [10], 20.1 µM (inactive); in assay [11], 19.9 µM (inactive). The GI50 in [12] is 22.7 µM (inactive); in assay [13], 23.6 µM (inactive); in [15], 18.3 µM (inactive); in [16] it was 19.8 µM (inactive); in [17] it was 18.5 µM (inactive); in [18] it was 35.6 µM (inactive). Besides, in assay [19], the GI50 is 37.4 µM (inactive).
